For one data set, the target named is T1, 15N-labelled EcDsbA (Escherichia coli, UniProt P0AEG4).
T1 construct: made in house; protein recovered from the periplasm of the expressing cells
Description: 2D 1H-15N HSQC chemical shift perturbation / titration. The format is binding. The settings on record: for Ligand Efficiency: LE = −RTln(KD)/HAC, 298 K; for fold decrease in binding affinity: relative to 25. The procedure: Compounds that passed at least one ligand-detected NMR experiment were further validated by 2D ^1H-^15N heteronuclear single quantum coherence (HSQC) spectroscopy. In HSQC experiments, chemical shift perturbations (CSP) of backbone amide resonances of ^15N-labelled EcDsbA were measured upon addition of compound at 1 mM. […] In accordance with the crystal structure, the majority of the residues perturbed by 1 mM of benzofuran analogues in single-point HSQCs are located around the hydrophobic groove which is an important binding site for DsbA substrates (Figure 2A). […] Eight compounds produced large enough CSP (>0.04 ppm) to enable HSQC titration and KD determination.
For the 2D ^1H-^15N-HSQC titration experiment, 100 µM of ^15N-labelled EcDsbA in a buffer of 50 mM HEPES, pH 6.8, 50 mM NaCl, 2% ^2H6-DMSO, and 10% ^2H2O, was titrated with increasing concentrations of compounds ([…], 0.125, 0.25, 0.5, and 1 mM). Data were acquired on a Bruker 600 MHz spectrometer equipped with a 5 mm TXI CryoProbe and a Bruker 700 MHz spectrometer equipped with a 5 mm TXI CryoProbe. Data was processed by Topspin3.5 (Bruker) and analysed by Sparky (T. D. Goddard and D. G. Kneller, SPARKY 3, University of California, San Francisco (UCSF)). Weighted chemical shift perturbations (CSP) that were observed upon addition of compounds to EcDsbA were calculated using an Equation (1) in [41]: (1) CSP=ΔδH^2+(0.2×ΔδN)^2 where ΔδH and ΔδN denote the change in chemical shift of amide proton and nitrogen resonances upon addition of the compound. Equilibrium dissociation constants (KD) were determined by fitting the plot of CSP against compound concentrations using one site with ligand depletion model (Equation (2)): (2) CSP=CSPmax×[(KD+Pt+Lt)−((KD+Pt+Lt)^2−4×Pt×Lt)]/2×Pt where CSP is the measured CSP at a given concentration, CSPmax is the CSP observed at the saturating concentration of compound, and Pt and Lt are the total protein and compound concentrations. The ligand efficiency (LE) is calculated using the Equation (3) in [42]: (3) LE=−ΔG/HAC=−RTln(KD)/HAC where R is gas constant (1.9858775 cal K^−1 mol^−1), T is temperature (298 K), KD is equilibrium dissociation constant, and HAC is the number of heavy (non-hydrogen) atoms.

In data set [1] the target is T2, EcDsbA (Escherichia coli, UniProt P0AEG4).
T2 construct: made in house; protein recovered from the periplasm of the expressing cells
Briefly: CPMG ligand-detected NMR binding. The settings on record: compound 500 µM, unlabelled EcDsbA 10 µM, 298 K, spin-lock 350 ms. The text has this: (§1) To validate the binding of benzofuran analogues, three ligand-detected NMR methods, saturation-transfer difference (STD), Carr–Purcell–Meiboom–Gill (CPMG), and water–ligand observed via gradient spectroscopy (waterLOGSY), were employed to detect protein-ligand binding between the benzofurans and EcDsbA (Figure 2C). These experiments were designed as a primary screening tool to select analogues to undergo further affinity evaluation and prioritise compounds for crystal soaking. […] In a good agreement with this finding, eight out of nine benzofurans that passed all three ligand-detected experiments have their co-crystal structures successfully solved; in contrast, five compounds that failed two ligand-detected experiments only have one co-structure solved (Table 2).
(§2) For ligand-detected NMR spectroscopy, two samples (compound alone and compound + protein) were prepared for each compound. Unlabelled EcDsbA was prepared at 10 µM in a buffer of 50 mM sodium phosphate, pH 6.8, 25 mM NaCl, 100 µM 4,4-dimethyl 4-silapentane-1-sulfonic acid (DSS), and 10% ^2H2O. Compound was added to the protein sample to achieve final concentration of 500 µM (2% ^2H6-DMSO). ^1H 1D spectrum was acquired for each compound at 500 µM as a reference spectrum. All ligand-detected NMR experiments (STD, CPMG, and waterLOGSY) were acquired at 298 K on a Bruker Avance III 600 MHz NMR spectrometer equipped with a 5 mm TXI CryoProbe (Bruker, Billerica, MA, USA). STD spectra were acquired with 3 s of saturation at 1 ppm (on-resonance) and 33.3 ppm (off-resonance). WaterLOGSY spectra were acquired for compound alone and compound + protein with a 0.52 s acquisition time, 3 s relaxation delay, and 3 s Nuclear Overhauser effect (NOE) mixing time. CPMG spectra for compound alone and compound + protein were acquired with a constant spin echo delay of 1 ms and spin-lock period of 350 ms. The data was analysed using Topspin3.5 (Bruker) and DSS was used to reference the spectra.

The target in data set [2] is T2, EcDsbA. Briefly: Compound soaking into EcDsbA crystals and X-ray diffraction. The format is binding. The conditions noted are these: crystals soaked with compound at 10 mM (5% DMSO) for 3–6 h. From the text:
The synthesised analogues were soaked into crystals of EcDsbA and X-ray diffraction data was collected for each analogue in order to determine their site of binding. […] The carboxy moiety of 15 was oriented towards the left-hand side of the binding groove, where more polar residues are located. The phenyl ring of the aniline moiety occupied the hydrophobic end of the binding pocket with the nitrogen atom of the amine linker positioned in close proximity to Gln35. […] Although anisidine 16 was occupying a larger region of the EcDsbA binding groove, the shift appeared to have interrupted the π-stacking interactions the benzofuran was making with the His32 side chain previously (Figure 1B and Figure S1).
EcDsbA was crystallised as previously described. Briefly, 1 µL of 30 mg/mL EcDsbA was mixed with an equal volume of crystallisation buffer (11–13% PEG8000, 5–7.5% glycerol, 1 mM CuCl2, 100 mM, sodium cacodylate pH 6.1) and equilibrated against 500 µL of reservoir buffer at 20 °C using hanging drop vapour diffusion. For compound soaking, crystals were transferred into 2 µL drops of 24% PEG8000, 22% glycerol, and 100 mM sodium cacodylate (pH 6.1) containing a compound of interest at the final concentration of 10 mM (5% DMSO) and were incubated for 3–6 h. Crystals were mounted on loops and flash-cooled in liquid nitrogen.
Datasets were collected at the Australian synchrotron on MX1 and MX2 beamlines using the Blue-Ice software (Irvine, CA, USA). MX1 beamline was equipped with an ADSC Quantum 210r detector and MX2 with an ADSC Quantum 315r detector. All datasets were indexed and integrated with iMOSFLM [32] or XDS [33]—and scaled using AIMLESS [34, 35] or SCALA [36]. Phasing was performed by molecular replacement with Phaser using the previously solved structure of EcDsbA as a search model (PDB code 1FVK). The final structure was obtained after several rounds of manual model building using Coot and refinement in phenix.refine. Structures, factors and coordinates have been deposited in the Protein Data Bank (PDB; http://www.pdb.org) under the accession codes of 6PMF, 6POQ, 6POH, 6PML, 6PVY, 6POI, and 6PVZ.

The target in data set [3] is T2, EcDsbA. Description: STD ligand-detected NMR binding. The conditions noted are these: compound 500 µM, unlabelled EcDsbA 10 µM, 298 K.
Description: as §1, §2

Data set [4] has as its target T2, EcDsbA. Briefly: waterLOGSY ligand-detected NMR binding. The settings on record: compound 500 µM, unlabelled EcDsbA 10 µM, 298 K.
Description: as §1, §2

What is called melting point is the temperature of the solid-liquid transition. What is called Kd is the concentration at which binding is half-saturated.

T1 sequence (P0AEG4 20-208): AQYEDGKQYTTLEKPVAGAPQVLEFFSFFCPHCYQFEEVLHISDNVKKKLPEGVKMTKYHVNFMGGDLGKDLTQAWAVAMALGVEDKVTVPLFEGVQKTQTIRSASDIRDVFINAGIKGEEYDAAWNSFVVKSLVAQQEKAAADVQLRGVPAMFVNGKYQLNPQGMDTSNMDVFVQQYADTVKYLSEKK
T2 sequence (P0AEG4 20-208): as above

In the case of `O=C(O)C(NS(=O)(=O)c1ccccc1)c1coc2cc(Br)ccc12` (stereo not shown), the melting point is 179 to 182 °C.
Turning to `O=C(O)Cc1coc2cc(Br)ccc12` [compound 6, 2-(6-Bromobenzofufran-3-yl)acetic acid], the “affinity to EcDsbA” value on 15N-labelled EcDsbA (fragment hit from biophysical screening) is “high mM affinity”.
For `COc1ccc(Nc2ccc3c(CC(=O)O)coc3c2)cc1` [compound 16, 2-(6-((4-Methoxyphenyl)amino)benzofuran-3-yl)acetic acid], the melting point lay within 120 to 122 °C. In addition, the CPMG entry at EcDsbA [1] is “Pass”. In addition, on EcDsbA [2], the “Crystal Structure in EcDsbA” value is “Yes”. At EcDsbA [3], the STD entry is given as “Fail”. The wLOGSY entry at EcDsbA [4] is given as “Pass”. Moreover, at 15N-labelled EcDsbA, the Kd turned out to be 2700 ± 920 µM and the “Ligand Efficiency” value was 0.16 kcal mol^−1 HAC^−1.
`CCCCOc1ccc2c(CC(=O)O)coc2c1` [compound 21, 2-(6-Butoxybenzofuran-3-yl)acetic acid] showed a melting point of 108 to 109 °C. Further, at EcDsbA [1], the CPMG result is given as “Pass”. Also, the “Crystal Structure in EcDsbA” value at EcDsbA [2] is listed as “Yes”. The STD result on EcDsbA [3] is listed as “Pass”. For the same molecule, the wLOGSY result at EcDsbA [4] is listed as “Pass”. Moreover, on 15N-labelled EcDsbA, the Kd stood at 1970 ± 640 µM, the “Ligand Efficiency” value was 0.20 kcal mol^−1 HAC^−1 and the “fold decrease in binding affinity” value was “six-fold decrease”.
`CC(C)COc1ccc2c(CC(=O)O)coc2c1` [compound 22, 2-(6-Isobutoxybenzofuran-3-yl)acetic acid]: the CPMG result at EcDsbA [1] is “Pass”. Further, the “Crystal Structure in EcDsbA” value at EcDsbA [2] is listed as “Yes”. On EcDsbA [3], the STD result is “Fail”. Besides, at EcDsbA [4], the wLOGSY result is reported as “Fail”. In addition, the “chemical shift perturbations (CSP) of hydrophobic groove residues” value at 15N-labelled EcDsbA (single-point HSQC, compound at 1 mM) is recorded as “too small to determine KD”.
With `O=C(O)Cc1coc2cc(OCc3ccccc3)ccc12` [compound 23], the melting point was in the range of 153 to 155 °C. In addition, the CPMG result on EcDsbA [1] is reported as “Pass”. Besides, the “Crystal Structure in EcDsbA” value on EcDsbA [2] is “Yes”. Moreover, at EcDsbA [3], the STD entry was “Pass”. For the same molecule, the wLOGSY entry on EcDsbA [4] is “Pass”. Besides, at 15N-labelled EcDsbA, the Kd amounted to 820 ± 140 µM and the “Ligand Efficiency” value amounted to 0.20 kcal mol^−1 HAC^−1.
For the molecule `O=C(O)Cc1coc2ccc(OCc3ccccc3)cc12` [compound 24, 2-(5-(Benzyloxy)benzofuran-3-yl)acetic acid], the melting point fell in the range of 147 to 149 °C. Besides, on EcDsbA [2], the “Crystal Structure in EcDsbA” value is “did not show clear enough electron density”.
For `O=C(O)Cc1coc2cc(Oc3ccccc3)ccc12` [compound 25, 2-(6-Phenoxybenzofuran-3-yl)acetic acid], the CPMG result at EcDsbA [1] is “Pass”. For the same molecule, the “Crystal Structure in EcDsbA” value on EcDsbA [2] is recorded as “Yes”. On EcDsbA [3], the STD entry is on record as “Pass”. Also, the wLOGSY entry on EcDsbA [4] is listed as “Pass”. For the same molecule, at 15N-labelled EcDsbA, the Kd amounted to 326 ± 25 µM and the “Ligand Efficiency” value is recorded as 0.24 kcal mol^−1 HAC^−1.
Take `COc1cccc(Oc2ccc3c(CC(=O)O)coc3c2)c1` [compound 26, 2-(6-(3-Methoxyphenoxy)benzofuran-3-yl)acetic acid]: on EcDsbA [1], the CPMG entry was “Pass”. Also, on EcDsbA [3], the STD entry is reported as “Pass”. Also, the wLOGSY entry at EcDsbA [4] is “Pass”. In addition, on 15N-labelled EcDsbA, the Kd was 639 ± 87 µM, the “Ligand Efficiency” value is recorded as 0.20 kcal mol^−1 HAC^−1 and the “fold decrease in binding affinity” value was found to be 2 fold.
As to `Brc1ccc2c(Cc3nnn[nH]3)coc2c1` [compound 31, 5-((6-Bromobenzofuran-3-yl)methyl)-1H-tetrazole], the CPMG entry at EcDsbA [1] is listed as “Pass”. The “Crystal Structure in EcDsbA” value on EcDsbA [2] was “did not produce electron density and No”. In addition, at EcDsbA [3], the STD result is on record as “Pass”. Besides, on EcDsbA [4], the wLOGSY entry is listed as “Pass”.
As to `O=C(O)Cc1c[nH]c2cc(Br)ccc12` [compound 34, 2-(6-Bromo-1H-indol-3-yl)acetic acid], the “Crystal Structure in EcDsbA” value on EcDsbA [2] is listed as “lack of electron density”.
On to `O=C(O)Cc1c[nH]c2cc(-c3ccccc3)ccc12` [compound 36, 2-(6-Phenyl-1H-indol-3-yl)acetic acid], for which the CPMG result on EcDsbA [1] is “Pass”. The “Crystal Structure in EcDsbA” value on EcDsbA [2] was “lack of electron density and No”. Moreover, the STD result at EcDsbA [3] was “Pass”. Also, the wLOGSY result at EcDsbA [4] is “Pass”.
As for `CC(=O)NC(C(=O)O)c1coc2cc(Br)ccc12` (stereo not shown) [compound 46, 2-Acetamido-2-(6-bromobenzofuran-3-yl)acetic acid], the melting point lay within 194 to 196 °C. In addition, the CPMG entry at EcDsbA [1] is reported as “Fail”. Also, the “Crystal Structure in EcDsbA” value at EcDsbA [2] is listed as “No”. Further, the STD entry on EcDsbA [3] is listed as “Fail”. Besides, the wLOGSY result at EcDsbA [4] is listed as “Pass”.
With `O=C(NC(C(=O)O)c1coc2cc(Br)ccc12)c1ccccc1` (stereo not shown) [compound 47, 2-Benzamido-2-(6-bromobenzofuran-3-yl)-2-acetic acid], the melting point lay within 209 to 212 °C. In addition, the CPMG entry at EcDsbA [1] is recorded as “Fail”. In addition, the “Crystal Structure in EcDsbA” value at EcDsbA [2] is recorded as “No”. For the same molecule, the STD entry on EcDsbA [3] is on record as “Fail”. The wLOGSY entry at EcDsbA [4] is “Pass”.
With `CS(=O)(=O)NC(C(=O)O)c1coc2cc(Br)ccc12` (stereo not shown) [compound 50, 2-(6-Bromobenzofuran-3-yl)-2-(methylsulfonamido)acetic acid], the melting point lay in the range of 140 to 142 °C. In addition, at EcDsbA [1], the CPMG entry was “Pass”. Moreover, the “Crystal Structure in EcDsbA” value at EcDsbA [2] is recorded as “Yes”. In addition, at EcDsbA [3], the STD entry is given as “Pass”. Moreover, on EcDsbA [4], the wLOGSY result is given as “Pass”.

These data come from PMC6832960, “The Fragment-Based Development of a Benzofuran Hit as a New Class of Escherichia coli DsbA Inhibitors” (Molecules, 2019).
